Laboratory results reported in article PMC5218480 (PLoS ONE, 2017).

Test system: MV-4-11 cells
Test: Gene expression microarray analysis (Affymetrix PrimeView) and GSEA
Type: cell-based, human
Parameters: RFU PODN (11730768_x_at) / Fold change /veh PODN (11730768_x_at) / RFU LINC00158 (11744669_a_at) / Fold change /veh LINC00158 (11744669_a_at) / RFU DUSP10 (11751237_a_at) / Fold change /veh DUSP10 (11751237_a_at) / RFU ID3 (11757404_x_at) / Fold change /veh ID3 (11757404_x_at) / RFU PLEKHG5 (11737974_s_at) / Fold change /veh PLEKHG5 (11737974_s_at) / RFU LRRC4B (11730491_at) / Fold change /veh LRRC4B (11730491_at) / RFU GIMAP4 (11747438_a_at) / Fold change /veh GIMAP4 (11747438_a_at) / RFU KRT8 (11758183_x_at) / Fold change /veh KRT8 (11758183_x_at) / RFU CNN1 (11734310_a_at) / Fold change /veh CNN1 (11734310_a_at) / RFU VPS37D (11726825_at) / Fold change /veh VPS37D (11726825_at) / RFU C10orf10 (11716522_x_at) / Fold change /veh C10orf10 (11716522_x_at) / RFU KIR2DL2 /// KIR2DL4 /// KIR2DL5A /// KIR2DL5B /// KIR2DS1 /// KIR2DS2 /// KIR2DS3 /// KIR2DS4 /// KIR3DL3 /// KIR3DL3 /// KIR3DS1 (11738374_at) / Fold change /veh KIR2DL2 /// KIR2DL4 /// KIR2DL5A /// KIR2DL5B /// KIR2DS1 /// KIR2DS2 /// KIR2DS3 /// KIR2DS4 /// KIR3DL3 /// KIR3DL3 /// KIR3DS1 (11738374_at) / RFU C1QL1 (11718748_at) / Fold change /veh C1QL1 (11718748_at) / RFU TMPRSS4 (11747572_a_at) / Fold change /veh TMPRSS4 (11747572_a_at) / RFU HAMP (11756126_x_at) / Fold change /veh HAMP (11756126_x_at) / RFU RNFT2 (11725882_a_at) / Fold change /veh RNFT2 (11725882_a_at) / RFU NR4A2 (11747474_a_at) / Fold change /veh NR4A2 (11747474_a_at) / RFU ABCC12 (11746883_a_at) / Fold change /veh ABCC12 (11746883_a_at) / RFU TMEM136 (11760407_x_at) / Fold change /veh TMEM136 (11760407_x_at) / RFU CLDN22 /// WWC2 (11732394_at) / Fold change /veh CLDN22 /// WWC2 (11732394_at) / RFU HLA-DPB1 (11760878_x_at) / Fold change /veh HLA-DPB1 (11760878_x_at) / RFU SPINT1 (11716480_a_at) / Fold change /veh SPINT1 (11716480_a_at) / RFU GAP43 (11754022_s_at) / Fold change /veh GAP43 (11754022_s_at) / RFU A4GNT (11735810_at) / Fold change /veh A4GNT (11735810_at) / RFU PRB3 (11715151_x_at) / Fold change /veh PRB3 (11715151_x_at) / RFU TUBB4B (11761932_at) / Fold change /veh TUBB4B (11761932_at) / RFU CAPN14 (11732068_a_at) / Fold change /veh CAPN14 (11732068_a_at) / RFU TMCC2 (11721928_a_at) / Fold change /veh TMCC2 (11721928_a_at) / RFU IRGQ (11745062_a_at) / Fold change /veh IRGQ (11745062_a_at) / RFU FAM174B (11720279_a_at) / Fold change /veh FAM174B (11720279_a_at) / RFU TMPRSS4 (11748680_a_at) / Fold change /veh TMPRSS4 (11748680_a_at) / RFU FAM212B (11763350_a_at) / Fold change /veh FAM212B (11763350_a_at) / RFU PLEKHG5 (11743358_a_at) / Fold change /veh PLEKHG5 (11743358_a_at) / RFU ZSCAN30 (11745921_a_at) / Fold change /veh ZSCAN30 (11745921_a_at) / RFU CMKLR1 (11741424_a_at) / Fold change /veh CMKLR1 (11741424_a_at) / RFU LOC101060620 /// MAPK8IP1 (11723275_at) / Fold change /veh LOC101060620 /// MAPK8IP1 (11723275_at) / RFU SPTSSB (11747773_x_at) / Fold change /veh SPTSSB (11747773_x_at) / RFU PRSS12 (11739890_at) / Fold change /veh PRSS12 (11739890_at) / RFU BIN1 (11741810_x_at) / Fold change /veh BIN1 (11741810_x_at) / RFU WNT11 (11732464_a_at) / Fold change /veh WNT11 (11732464_a_at) / RFU C10orf10 (11716521_a_at) / Fold change /veh C10orf10 (11716521_a_at) / RFU C5orf56 (11738089_at) / Fold change /veh C5orf56 (11738089_at) / RFU CYB561 (11721691_x_at) / Fold change /veh CYB561 (11721691_x_at) / RFU ANKRD19P (11752326_a_at) / Fold change /veh ANKRD19P (11752326_a_at) / RFU OR2T12 /// OR2T33 /// OR2T8 (11738714_s_at) / Fold change /veh OR2T12 /// OR2T33 /// OR2T8 (11738714_s_at) / RFU VCAN (11748164_a_at) / Fold change /veh VCAN (11748164_a_at) / RFU JSRP1 (11732532_at) / Fold change /veh JSRP1 (11732532_at) / RFU KRTAP10-11 (11738290_x_at) / Fold change /veh KRTAP10-11 (11738290_x_at) / RFU MYO3A (11730013_a_at) / Fold change /veh MYO3A (11730013_a_at) / RFU EBF3 (11725865_a_at) / Fold change /veh EBF3 (11725865_a_at) / RFU CAMK2N1 (11719241_x_at) / Fold change /veh CAMK2N1 (11719241_x_at) / RFU C5orf56 (11738088_a_at) / Fold change /veh C5orf56 (11738088_a_at) / RFU OLFML3 (11715873_a_at) / Fold change /veh OLFML3 (11715873_a_at) / RFU LOC100653217 /// NTM (11731650_a_at) / Fold change /veh LOC100653217 /// NTM (11731650_a_at) / RFU MAPK11 (11762145_a_at) / Fold change /veh MAPK11 (11762145_a_at) / RFU FIZ1 (11724087_x_at) / Fold change /veh FIZ1 (11724087_x_at) / RFU OASL (11726364_x_at) / Fold change /veh OASL (11726364_x_at) / RFU SOX15 (11748057_x_at) / Fold change /veh SOX15 (11748057_x_at) / RFU CD79A (11719716_a_at) / Fold change /veh CD79A (11719716_a_at) / RFU HIST1H1D (11736915_at) / Fold change /veh HIST1H1D (11736915_at) / RFU CASKIN2 (11723855_a_at) / Fold change /veh CASKIN2 (11723855_a_at) / RFU LOC730098 (11760151_x_at) / Fold change /veh LOC730098 (11760151_x_at) / RFU OR4N2 (11742367_at) / Fold change /veh OR4N2 (11742367_at) / RFU PRRT2 (11749266_a_at) / Fold change /veh PRRT2 (11749266_a_at) / RFU SNX32 (11753110_a_at) / Fold change /veh SNX32 (11753110_a_at) / RFU CDHR5 (11726645_a_at) / Fold change /veh CDHR5 (11726645_a_at) / RFU RCAN1 (11760418_a_at) / Fold change /veh RCAN1 (11760418_a_at) / RFU FAM167A (11723789_a_at) / Fold change /veh FAM167A (11723789_a_at) / RFU FAM26E (11764081_at) / Fold change /veh FAM26E (11764081_at) / RFU ISYNA1 (11749810_s_at) / Fold change /veh ISYNA1 (11749810_s_at) / RFU ACY1 (11761880_at) / Fold change /veh ACY1 (11761880_at) / RFU 11764098_at / Fold change /veh 11764098_at / RFU SAMD14 (11745864_x_at) / Fold change /veh SAMD14 (11745864_x_at) / RFU NPB (11741838_a_at) / Fold change /veh NPB (11741838_a_at) / RFU TMPRSS6 (11731388_a_at) / Fold change /veh TMPRSS6 (11731388_a_at) / RFU KRTAP10-2 (11738614_at) / Fold change /veh KRTAP10-2 (11738614_at) / RFU ARHGAP8 /// PRR5-ARHGAP8 (11727945_x_at) / Fold change /veh ARHGAP8 /// PRR5-ARHGAP8 (11727945_x_at) / RFU KRTAP5-7 /// NADSYN1 (11734609_at) / Fold change /veh KRTAP5-7 /// NADSYN1 (11734609_at) / RFU RASL12 (11751679_a_at) / Fold change /veh RASL12 (11751679_a_at) / RFU CDKN2B (11736163_a_at) / Fold change /veh CDKN2B (11736163_a_at) / RFU PRF1 (11729649_at) / Fold change /veh PRF1 (11729649_at) / RFU, ZNF638 /// ZNF638-IT1 / Fold change vs veh, ZNF638 /// ZNF638-IT1 / RFU, PANK3 / Fold change vs veh, PANK3 / RFU, SH3YL1 / Fold change vs veh, SH3YL1 / RFU, ZEB2 / Fold change vs veh, ZEB2 / RFU, NRIP1 / Fold change vs veh, NRIP1 / RFU, PTTG1IP / Fold change vs veh, PTTG1IP / RFU, CAPN2 / Fold change vs veh, CAPN2 / RFU, MED14 / Fold change vs veh, MED14 / RFU, SNORA58 / Fold change vs veh, SNORA58 / RFU, C1orf63 / Fold change vs veh, C1orf63 / RFU, LRRFIP1 / Fold change vs veh, LRRFIP1 / RFU, NDUFAF7 / Fold change vs veh, NDUFAF7 / RFU, SLC12A2 / Fold change vs veh, SLC12A2 / RFU, IBTK / Fold change vs veh, IBTK / RFU, ESF1 / Fold change vs veh, ESF1 / Fold change vs veh, TMEM50B / RFU, TAOK1 / Fold change vs veh, TAOK1 / RFU, ACBD3 / Fold change vs veh, ACBD3 / RFU, TMA16 / Fold change vs veh, TMA16 / RFU, RWDD3 / Fold change vs veh, RWDD3 / RFU, BCAT1 / Fold change vs veh, BCAT1 / RFU, EDEM3 / Fold change vs veh, EDEM3 / RFU, TMEM33 / Fold change vs veh, TMEM33 / RFU, WDR75 / Fold change vs veh, WDR75 / RFU, AHCTF1 / Fold change vs veh, AHCTF1 / RFU, TFRC / Fold change vs veh, TFRC / RFU, ZDHHC17 / Fold change vs veh, ZDHHC17 / RFU, NOM1 / Fold change vs veh, NOM1 / RFU, ARL8B / Fold change vs veh, ARL8B / RFU, ZBTB11 / Fold change vs veh, ZBTB11 / RFU, TAMM41 / Fold change vs veh, TAMM41 / RFU, KIAA1704 /// LOC100996395 / Fold change vs veh, KIAA1704 /// LOC100996395 / RFU, ING1 / Fold change vs veh, ING1 / RFU, TRMT61B / Fold change vs veh, TRMT61B / RFU, FUBP3 / Fold change vs veh, FUBP3 / RFU, TP53 / Fold change vs veh, TP53 / RFU, TNKS2 / Fold change vs veh, TNKS2 / RFU, ZFP14 / Fold change vs veh, ZFP14 / RFU, ACTR2 / Fold change vs veh, ACTR2 / RFU, PPP3R1 / Fold change vs veh, PPP3R1 / RFU, PIK3R1 / Fold change vs veh, PIK3R1 / RFU, HNRNPA1 / Fold change vs veh, HNRNPA1 / RFU, RNF170 / Fold change vs veh, RNF170 / RFU, ZNF28 / Fold change vs veh, ZNF28 / RFU, RNGTT / Fold change vs veh, RNGTT / RFU, OGT / Fold change vs veh, OGT / RFU, BRD1 / Fold change vs veh, BRD1 / RFU, MARS / Fold change vs veh, MARS / RFU, ZNF655 / Fold change vs veh, ZNF655 / RFU, FAHD1 / Fold change vs veh, FAHD1 / RFU, BDP1 / Fold change vs veh, BDP1 / RFU, LRRCC1 / Fold change vs veh, LRRCC1 / RFU, ARID1A / Fold change vs veh, ARID1A / RFU, ZNF146 / Fold change vs veh, ZNF146 / RFU, ZNF330 / Fold change vs veh, ZNF330 / RFU, GPN3 / Fold change vs veh, GPN3 / RFU, C9orf123 / Fold change vs veh, C9orf123 / RFU, N4BP2L2 / Fold change vs veh, N4BP2L2 / RFU, ARFIP1 / Fold change vs veh, ARFIP1 / RFU, FAM179B / Fold change vs veh, FAM179B / RFU, BCL10 / Fold change vs veh, BCL10 / RFU, UHRF1BP1L / Fold change vs veh, UHRF1BP1L / RFU, BET1 / Fold change vs veh, BET1 / RFU, CNOT2 / Fold change vs veh, CNOT2 / RFU, ZNF268 / Fold change vs veh, ZNF268 / Fold change vs veh, ZNF507 / RFU, DGCR2 / Fold change vs veh, DGCR2 / RFU, WDSUB1 / Fold change vs veh, WDSUB1 / Fold change vs veh, HSP90B1 /// MIR3652 / RFU, ADSS / Fold change vs veh, ADSS / RFU, GK / Fold change vs veh, GK / RFU, ZNF148 / Fold change vs veh, ZNF148 / RFU, TAF9 / Fold change vs veh, TAF9 / RFU, SLC1A5 / Fold change vs veh, SLC1A5 / RFU, SLMO2 / Fold change vs veh, SLMO2 / RFU, ABCC4 / Fold change vs veh, ABCC4 / RFU, LOC101060439 /// RAP1B / Fold change vs veh, LOC101060439 /// RAP1B / RFU, RFX7 / Fold change vs veh, RFX7 / RFU, GTPBP10 / Fold change vs veh, GTPBP10 / RFU, CNEP1R1 / Fold change vs veh, CNEP1R1 / RFU, BIVM-ERCC5 /// ERCC5 / Fold change vs veh, BIVM-ERCC5 /// ERCC5 / RFU, ILF3 / Fold change vs veh, ILF3 / RFU 11762660_at / Fold change /veh 11762660_at / RFU VCAN (11757783_s_at) / Fold change /veh VCAN (11757783_s_at) / RFU DDX43 (11728927_at) / Fold change /veh DDX43 (11728927_at) / RFU KRT8 (11758188_x_at) / Fold change /veh KRT8 (11758188_x_at) / RFU NKD1 (11759106_at) / Fold change /veh NKD1 (11759106_at) / RFU SRD5A1 (11742802_a_at) / Fold change /veh SRD5A1 (11742802_a_at) / RFU TPSAB1 /// TPSB2 (11721975_s_at) / Fold change /veh TPSAB1 /// TPSB2 (11721975_s_at) / RFU GSTM3 (11746129_a_at) / Fold change /veh GSTM3 (11746129_a_at) / RFU IL23R (11737362_x_at) / Fold change /veh IL23R (11737362_x_at) / RFU TMEM51 (11727254_a_at) / Fold change /veh TMEM51 (11727254_a_at) / RFU PIWIL2 (11732686_x_at) / Fold change /veh PIWIL2 (11732686_x_at) / RFU ORM1 (11744905_x_at) / Fold change /veh ORM1 (11744905_x_at) / RFU CCDC152 (11743942_at) / Fold change /veh CCDC152 (11743942_at) / RFU ECM1 (11717891_a_at) / Fold change /veh ECM1 (11717891_a_at) / RFU IL23R (11748794_a_at) / Fold change /veh IL23R (11748794_a_at) / RFU TNFAIP8L3 (11732012_x_at) / Fold change /veh TNFAIP8L3 (11732012_x_at) / RFU MBOAT4 (11741988_at) / Fold change /veh MBOAT4 (11741988_at) / RFU 11764193_at / Fold change /veh 11764193_at / RFU TMEM53 (11763286_at) / Fold change /veh TMEM53 (11763286_at) / RFU MAGEB2 (11727129_at) / Fold change /veh MAGEB2 (11727129_at) / RFU TMEM200A (11744735_a_at) / Fold change /veh TMEM200A (11744735_a_at) / RFU CCDC152 (11751479_a_at) / Fold change /veh CCDC152 (11751479_a_at) / RFU FAM211A (11726209_a_at) / Fold change /veh FAM211A (11726209_a_at) / RFU RGS16 (11746705_a_at) / Fold change /veh RGS16 (11746705_a_at) / RFU VCAN (11755009_s_at) / Fold change /veh VCAN (11755009_s_at) / RFU RHOB (11743442_s_at) / Fold change /veh RHOB (11743442_s_at) / RFU RGS16 (11720943_a_at) / Fold change /veh RGS16 (11720943_a_at) / RFU RGS16 (11720944_at) / Fold change /veh RGS16 (11720944_at) / RFU, VPS4B / Fold change vs veh, VPS4B / RFU, CREB1 / Fold change vs veh, CREB1 / RFU, DNAJC13 / Fold change vs veh, DNAJC13 / RFU, GNAQ / Fold change vs veh, GNAQ / RFU, CDK5R1 / Fold change vs veh, CDK5R1 / RFU, ZRANB3 / Fold change vs veh, ZRANB3 / RFU, CUL4A / Fold change vs veh, CUL4A / RFU, CCNY / Fold change vs veh, CCNY / RFU, UFL1 / Fold change vs veh, UFL1 / RFU, COG3 / Fold change vs veh, COG3 / RFU, DIAPH2 / Fold change vs veh, DIAPH2 / RFU, SKA2 / Fold change vs veh, SKA2 / RFU, AFF3 / Fold change vs veh, AFF3 / RFU, LMF1 / Fold change vs veh, LMF1 / RFU, IPO11 / Fold change vs veh, IPO11 / RFU, DFFB / Fold change vs veh, DFFB / RFU, FOXP1 / Fold change vs veh, FOXP1 / RFU, CARD8 / Fold change vs veh, CARD8 / RFU, STRN3 / Fold change vs veh, STRN3 / RFU, ADK / Fold change vs veh, ADK / RFU, RASSF2 / Fold change vs veh, RASSF2 / RFU, WIPF1 / Fold change vs veh, WIPF1 / RFU, LARP1B / Fold change vs veh, LARP1B / RFU, RASA1 / Fold change vs veh, RASA1 / RFU, RB1 / Fold change vs veh, RB1 / RFU, PPFIA1 / Fold change vs veh, PPFIA1 / RFU, MAT2A / Fold change vs veh, MAT2A / RFU, CCT5 / Fold change vs veh, CCT5 / RFU, WDR92 / Fold change vs veh, WDR92 / RFU, CUX1 / Fold change vs veh, CUX1 / RFU, TTC7A / Fold change vs veh, TTC7A / RFU, TMEM135 / Fold change vs veh, TMEM135 / RFU, DEPTOR / Fold change vs veh, DEPTOR / RFU, CPM / Fold change vs veh, CPM / RFU, DNAJB6 / Fold change vs veh, DNAJB6 / RFU, CACNA2D3 / Fold change vs veh, CACNA2D3 / RFU, DTX4 / Fold change vs veh, DTX4 / RFU, TFCP2 / Fold change vs veh, TFCP2 / RFU, GMCL1 /// GMCL1P1 / Fold change vs veh, GMCL1 /// GMCL1P1 / RFU, AEBP2 / Fold change vs veh, AEBP2 / RFU, SNHG1 /// SNORD22 /// SNORD25 /// SNORD26 /// SNORD27 /// SNORD28 /// SNORD29 /// SNORD31 / Fold change vs veh, SNHG1 /// SNORD22 /// SNORD25 /// SNORD26 /// SNORD27 /// SNORD28 /// SNORD29 /// SNORD31 / Fold change (Aza/veh), C12orf56 (ProbeSet 11735607_a_at) / Fold change (ACY-1035/veh), C12orf56 (ProbeSet 11735607_a_at) / Fold change (Aza/veh), FGFR1OP (ProbeSet 11751329_s_at) / Fold change (ACY-1035/veh), FGFR1OP (ProbeSet 11751329_s_at) / Fold change (Aza/veh), VPS36 (ProbeSet 11739960_a_at) / Fold change (ACY-1035/veh), VPS36 (ProbeSet 11739960_a_at) / RFU SYPL1 (11715823_x_at) / Fold change /veh SYPL1 (11715823_x_at) / RFU IGFBP7 (11715501_s_at) / Fold change /veh IGFBP7 (11715501_s_at) / RFU REEP3 (11722064_at) / Fold change /veh REEP3 (11722064_at) / RFU IGLL1 (11728026_x_at) / Fold change /veh IGLL1 (11728026_x_at): dose or concentration left out as unconfirmed
Settings: MV-4-11 cells, 48 hours

`Nc1ncn([C@@H]2O[C@H](CO)[C@@H](O)[C@H]2O)c(=O)n1` [azacitidine] was tested, and the “Fold change /veh ECM1 (11717891_a_at)” value was 1.26.
